From patent US20120258170A1, “PHARMACEUTICAL CO-CRYSTALS OF QUERCETIN” (Nutracryst Therapeutics Private Limited, priority 2009, published 2012)
“Also recorded” adds a separate entry of the source. Where a name gives a salt, the structure may show the parent alone. Read-outs that look alike come from different tables or passages of the source.

Assays:
[1] = tested on: db/db mice; assay: Chronic effect on plasma profile (PG, TC, TG), 4 hrs fasted, before dosing, in db/db mice; type: in vivo; conditions: for 14th day PG / 14th day TC / 14th day TG: 14 days 300 mg/kg once daily per oral, pre dosing; for 14th day PG / 14th day TC / 14th day TG / 21st day PG / 21st day TC / 21st day TG: 4 hr fasting; for % Red PG, 14th day / % Red TC, 14th day / % Red TG, 14th day: 14 days 300 mg/kg once daily; for % Red PG, 14th day / % Red TC, 14th day / % Red TG, 14th day / % Red PG, 21st day: adjusted for control and basal; for 21st day PG / 21st day TC / 21st day TG: 21 days 300 mg/kg once daily per oral, predosing; for % Red PG, 21st day / % Red TC (plasma cholesterol), 21st day / % Red TG (plasma triglyceride), 21st day: 21 days 300 mg/kg once daily; for % Red TC (plasma cholesterol), 21st day / % Red TG (plasma triglyceride), 21st day: post 4 hrs fasting, without dosing on the day; for Basal PG / Basal TC / Basal TG: 4 hrs fasted, before treatment, Mean ± SEM; for 4 hrs fasting plasma glucose levels after 21 days treatment (in words): chronic treatment 21 days
Experimental: (§1) Db/db mice were acclimatized to dosing and exposed to tail cut and r.o.p bleeding. Animals were grouped based on plasma glucose, triglyceride and cholesterol values. Acute effect of test compound on plasma glucose levels determined 3 hrs post dosing followed by administration of test compound for 21 days. After 14 days treatment, 4 hrs fasting plasma glucose levels were measured. After 21 days treatment, 4 hrs fasting plasma glucose levels were measured followed by test compound administration and measurement of plasma glucose levels 3 hrs post dosing.
(§2) Kits: Plasma glucose, cholesterol and triglyceride were measured using Dade Behring auto analyzer. Plasma insulin values measured using Rat/mouse insulin ELISA kit (Millipore, lot no 16006280). Tail cut method plasma glucose values measured using Contour TS glucometer strips (Lot WK8MD3E32A).
(§3) Compounds and Vehicle: All test-compounds were formulated in tween CMC (10% of 2.5% tween 80+90% of 0.25% CMC) and prepared daily about 1 hr before administration. Animals were dosed for 21 days through oral gavage at dose volume of 10 ml/kg body weight.
(§4) Animals were dosed daily at around 10 AM to 11 AM with corresponding test compounds/vehicle at a volume of 10 ml/kg of body weight. Body weight, water intake and food intake was measured daily. After 14 days treatment plasma profile (PG, TG & TC) was measured in 4 hrs fasted animals. On that day animals were dosed post bleeding after keeping feed at 4 PM. After 21 days treatment plasma profile (PG, TG & TC) was measured in 4 hrs fasted animals. After bleeding, animals were administered with test compounds/vehicle and plasma glucose was measured 3 hrs post dosing with Glucometer. Immediately animals were provided with feed.
(§5) Blood samples from r.o.p bleeding were collected in micro centrifuge tubes containing 5 ul of EDTA Na ([…]). Plasma separated by centrifuging blood samples at 6000 rpm at 40 C for 5 minutes. Plasma glucose, total cholesterol and triglyceride were measured using Dade Bhering auto analyser. Plasma insulin was measured (in duplicate samples), using Millipore mouse/rat insulin ELISA kit.
(§6) The percent reduction in plasma profile parameters were calculated using the formula 1−(tt/tc)/bt/bc)×100; where tt: test day treated group mean value of the parameter; tc: test day control group mean value of the parameter; bc: Basal Control group mean value; bt: Basal treated group mean value.
(§7) Statistics were applied using One-Way ANOVA followed by Dunnett's test using sigma stat software.

[2] = tested on: db/db mice; assay: Chronic effect on plasma insulin levels in db/db mice; type: in vivo; set-up: % Reduction in plasma insulin / % Reduction@ in plasma insulin: concentration or dose not given beside the values; conditions: for % Reduction@ in plasma insulin: 21th day, calculated after adjusting for control group change; for 21th day insulin: 21 days 300 mg/kg once daily, 4 hr fasting, predosing; for % Reduction in plasma insulin: basal vs 21th day; for % Reduction in plasma insulin / Basal insulin: Mean ± SEM; for Basal insulin: before treatment
Experimental: as §2, §3, §4, §5, §6, §7

[3] = Chronic effect on body weight in db/db mice; type: in vivo; conditions: Mean ± SEM; for Final day Body weight: after 21 days 300 mg/kg once daily; for % Increase in body weight: basal to final day
Experimental: as §3, §4, §7

[4] = tested on: db/db mice; assay: Acute effect of test compounds on plasma glucose levels in db/db mice; type: in vivo; conditions: for % Reduction in plasma glucose (acute): 0 hr vs 3 hr post single dose 300 mg/kg per oral; for % Reduction in plasma glucose (acute) / 3 Hr plasma glucose / 0 Hr plasma glucose: Mean ± SEM; for 3 Hr plasma glucose: 3 hrs post single dose 300 mg/kg per oral; for 0 Hr plasma glucose: 4 hrs fasted, before dosing, 300 mg/kg per oral group; for plasma glucose levels 3 hrs post dosing with single dose (in words): acute administration, 300 mg/kg, vs control group
Experimental: as §1, §2, §3
On the day of initiating study animals were fasted for 4 hrs and plasma glucose was measured with Glucometer by tail cut method. Animals were dosed with test compound/vehicle according to their body weight and 3 hrs post dosing plasma glucose levels were measured with Glucometer Immediately animals were provided with measured amount of feed.
Acute effect percent reduction in PG was calculated for each animal using the formula
{(0 hr PG−test hr PG)/0 hr PG}×100
as §7

[5] = tested on: db/db mice; assay: Chronic effect (21 days) on plasma glucose 3 hrs post dosing in db/db mice; type: in vivo; conditions: for % Red PG, 21th day 3 hr post dosing / 21th day 3 hr post dosing PG: 21 days 300 mg/kg once daily, then dose; for 21th day 3 hr post dosing PG: Mean ± SEM; for plasma glucose levels 3 hrs post dosing after 21 days treatment followed by administration on day 21 (in words): 300 mg/kg
Experimental: as §1, §2, §3, §4, §6, §7

[6] = Stability of the co-crystal
[7] = water
Experimental: The compounds disclosed herein are finely ground and passed through standard mesh filter and particles with 75-180 micron, and are tested for their solubility and dissolution profile.
The solubility studies for co-crystals and salts were performed according to Higuchi and Connor's method with some variations. Excess amounts (100 mg) of the samples were suspended in 10 mL of water in round bottom flask. Solutions were stirred at 300 rpm using a magnetic stirrer. After 72 h, the suspensions were filtered through a paper filter (Whatman 40)) and filtered aliquots were sufficiently diluted, the absorbance of the samples were measured at 232 nm and the values were normalized for API. […] A standard graph was made by measuring the absorbance of varied concentrations of API in water using a UV spectrophotometer (Nanodrop UV/vis spectrometer) at λmax 232 nm.

[8] = biological target: human lens aldose reductase (Homo sapiens, UniProt P15121); conditions: cited from earlier work
[9] = biological target: angiotensin-converting enzyme (Homo sapiens, UniProt P12821); conditions: cited from earlier work
[10] = P<0.05; cited from earlier work
[11] = tested on: HeLa cells; conditions: Quercetin pretreatment; cited from earlier work
[12] = tested on: AMP-activated protein kinase (AMPK); conditions: HepG2 cells; cited from earlier work
[13] = cited from earlier work

angiotensin-converting enzyme, sequence (P12821 30-1306, species assumed): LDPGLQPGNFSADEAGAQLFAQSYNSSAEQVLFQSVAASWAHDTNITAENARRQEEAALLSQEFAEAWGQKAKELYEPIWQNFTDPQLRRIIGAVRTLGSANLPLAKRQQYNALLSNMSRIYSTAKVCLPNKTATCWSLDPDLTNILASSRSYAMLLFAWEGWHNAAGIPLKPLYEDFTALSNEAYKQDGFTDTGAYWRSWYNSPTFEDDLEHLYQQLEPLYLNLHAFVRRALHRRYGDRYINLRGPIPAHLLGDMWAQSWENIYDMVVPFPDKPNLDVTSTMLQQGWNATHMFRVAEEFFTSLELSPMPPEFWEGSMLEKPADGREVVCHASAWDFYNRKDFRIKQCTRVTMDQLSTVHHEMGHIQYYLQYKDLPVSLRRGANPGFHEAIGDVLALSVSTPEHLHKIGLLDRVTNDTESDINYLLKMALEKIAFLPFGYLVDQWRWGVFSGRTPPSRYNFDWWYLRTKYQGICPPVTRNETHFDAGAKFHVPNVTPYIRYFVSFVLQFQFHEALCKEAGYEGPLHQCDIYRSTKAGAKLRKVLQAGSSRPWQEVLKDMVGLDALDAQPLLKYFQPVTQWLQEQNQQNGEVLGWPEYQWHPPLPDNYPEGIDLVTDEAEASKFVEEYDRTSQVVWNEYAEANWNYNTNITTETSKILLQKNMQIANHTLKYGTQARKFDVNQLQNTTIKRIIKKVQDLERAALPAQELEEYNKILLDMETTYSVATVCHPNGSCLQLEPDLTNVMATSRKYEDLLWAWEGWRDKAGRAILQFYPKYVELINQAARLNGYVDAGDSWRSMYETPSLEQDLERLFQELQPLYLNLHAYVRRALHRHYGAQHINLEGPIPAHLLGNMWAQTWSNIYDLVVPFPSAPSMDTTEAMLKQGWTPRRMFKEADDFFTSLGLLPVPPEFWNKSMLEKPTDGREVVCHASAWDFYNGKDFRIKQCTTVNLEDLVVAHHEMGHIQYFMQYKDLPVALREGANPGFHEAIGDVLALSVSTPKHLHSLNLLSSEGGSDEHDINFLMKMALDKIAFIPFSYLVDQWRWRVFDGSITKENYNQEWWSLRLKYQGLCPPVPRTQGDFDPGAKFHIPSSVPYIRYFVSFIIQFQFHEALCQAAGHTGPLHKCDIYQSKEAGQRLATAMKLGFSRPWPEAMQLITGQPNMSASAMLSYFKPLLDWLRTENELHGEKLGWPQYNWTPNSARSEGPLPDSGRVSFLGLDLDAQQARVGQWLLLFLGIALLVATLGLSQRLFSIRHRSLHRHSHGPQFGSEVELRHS

SMILES | 14th day PG [1] [mg/dL] | 14th day TC [1] [mg/dL] | 14th day TG [1] [mg/dL] | % Red PG, 14th day [1] [%] | % Red TC, 14th day [1] [%] | % Red TG, 14th day [1] [%] | 21st day PG [1] [mg/dL] | 21st day TC [1] [mg/dL] | 21st day TG [1] [mg/dL] | % Red PG, 21st day [1] [%] | % Red TC (plasma cholesterol), 21st day [1] [%] | % Red TG (plasma triglyceride), 21st day [1] [%] | Basal PG [1] [mg/dL] | Basal TC [1] [mg/dL] | Basal TG [1] [mg/dL] | % Reduction@ in plasma insulin [2] [%] | 21th day insulin [2] [ng/mL] | % Reduction in plasma insulin [2] [%] | Basal insulin [2] [ng/mL] | Final day Body weight [3] [g] | also measured
O.O.O=c1c(O)c(-c2ccc(O)c(O)c2)oc2cc(O)cc(O)c12 [ILB-MCO-0904Q, Quercetin dihydrate] | 476.41 ± 45.57 | 154.43 ± 6.50 | 129.08 ± 5.61 | −4 | −1 | 8 | 432.69 ± 42.38 | 151.25 ± 4.93 | 141.99 ± 8.25 | 0 | 15 | 21 | 402.50 ± 26.82 | 156.25 ± 4.53 | 138.00 ± 8.04 | 18 | 2.90 ± 0.33 | 0.29 ± 9.87 | 2.94 ± 0.20 | 44.6 ± 1.3 | effect on plasma glucose levels with acute or chronic administration (in words) ([1]; 300 mg/kg): Did not show significant effect; % Increase in body weight [3]: 12.2 ± 2.3%; Basal Body weight [3]: 39.1 ± 1.2 g; % Reduction in plasma glucose (acute) [4]: 31 ± 4%; 3 Hr plasma glucose [4]: 293 ± 65 mg/dL; 0 Hr plasma glucose [4]: 398 ± 67 mg/dL; % Red PG, 21th day 3 hr post dosing [5]: 4%; 21th day 3 hr post dosing PG [5]: 345 ± 41 mg/dL
CN(C)C(=N)NC(=N)N.CN(C)C(=N)NC(=N)N.O.O.O=c1c(O)c(-c2ccc(O)c(O)c2)oc2cc(O)cc(O)c12 [ILB-MCO-0905Q, Quercetin dihydrate+Metformin free base co-crystal (1:2)] | 417.71 ± 37.85 | 153.68 ± 3.49 | 126.70 ± 6.25 | 8 | 2 | 8 | 368.96 ± 32.95 | 160.25 ± 4.29 | 129.66 ± 5.38 | 14 | 13 | 27 | 399.40 ± 26.54 | 160.42 ± 3.77 | 135.94 ± 6.92 | 45 | 3.03 ± 0.42 | 30.56 ± 8.10 | 4.55 ± 0.50 | 43.7 ± 1 | 4 hrs fasting plasma glucose levels after 21 days treatment (in words) ([1]; 300 mg/kg): did not show significant reduction; stability under accelerated conditions ([6]; accelerated conditions): stable; stability monitored once in seven days for 3 months ([6]; desiccated conditions): stable; hygroscopicity ([6]; normal conditions): hygroscopic; plasma insulin levels after 21 days treatment (in words) ([2]; 21 days, 300 mg/kg, compared to control group): significant reduction; % Increase in body weight [3]: 10.1 ± 2.5%; Basal Body weight [3]: 39.2 ± 0.8 g; % Reduction in plasma glucose (acute) [4]: 48 ± 4 %; 3 Hr plasma glucose [4]: 186 ± 21 mg/dL; 0 Hr plasma glucose [4]: 358 ± 34 mg/dL; plasma glucose levels 3 hrs post dosing with single dose (in words) [4]: Significant lowering; also recorded: significant reduction; plasma glucose levels 3 hrs post dosing after 21 days treatment followed by administration on day 21 (in words) [5]: significant lowering; also recorded: significant reduction; % Red PG, 21th day 3 hr post dosing [5]: 38%; 21th day 3 hr post dosing PG [5]: 225 ± 33 mg/dL; solubility compared with the parent molecule Quercetin ([7]; listed as Quercetin dihydrate-Metformin co-crystal): substantially improved; solubility compared with the parent molecule Quercetin ([7]; listed as Quercetin dihydrate-Metformin co-crystals): greater than the parent molecule
CN(C)C(=N)N=C(N)N [ILB-MCO-0906Q, Metformin hydrochloride] | 443.33 ± 40.27 | 144.51 ± 4.61 | 114.11 ± 4.76 | 3 | 6 | 17 | 400.80 ± 42.77 | 157.86 ± 8.76 | 127.00 ± 5.65 | 7 | 11 | 28 | 402.43 ± 26.13 | 155.90 ± 5.08 | 136.10 ± 5.39 | 28 | 3.82 ± 0.72 | 15.32 ± 7.16 | 4.42 ± 0.63 | 45.1 ± 0.6 | 4 hrs fasting plasma glucose levels after 21 days treatment (in words) ([1]; 300 mg/kg): did not show significant reduction; % Increase in body weight [3]: 14.5 ± 0.9%; Basal Body weight [3]: 38.5 ± 0.5 g; % Reduction in plasma glucose (acute) [4]: 52 ± 4 %; 3 Hr plasma glucose [4]: 181 ± 25 mg/dL; 0 Hr plasma glucose [4]: 373 ± 43 mg/dL; plasma glucose levels 3 hrs post dosing with single dose (in words) ([4]; hydrochloride): Significant lowering; also recorded: significant reduction; plasma glucose levels 3 hrs post dosing after 21 days treatment followed by administration on day 21 (in words) ([5]; hydrochloride): significant lowering; also recorded: significant reduction; % Red PG, 21th day 3 hr post dosing [5]: 44%; 21th day 3 hr post dosing PG [5]: 200 ± 31 mg/dL
O=c1c(O)c(-c2ccc(O)c(O)c2)oc2cc(O)cc(O)c12 [Quercetin] |  |  |  |  |  |  |  |  |  |  |  |  |  |  |  |  |  |  |  |  | inhibition of human lens aldose reductase [8]: strong inhibitor; hypotensive effect of bradykinin ([9]; pretreatment 88.7 μmol/kg p.o., 45 min, 14.7 μmol/kg i.v., 5 min, bradykinin 10 nmol/kg i.v.): significantly potentiated; hypertensive response to angiotensin I ([9]; same pretreatment, angiotensin I 0.1 nmol/kg iv): significantly reduced; mRNA expression of PGC-1alpha and SIRT1, mtDNA and cytochrome C concentration [10]: increased; maximal endurance capacity and voluntary wheel running activity [10]: increase; cisplatin-induced apoptosis in HeLa cells [11]: sensitizes; AMPK phosphorylation [12]: increased
N[C@@H](CC(=O)N1CCn2c(nnc2C(F)(F)F)C1)Cc1cc(F)c(F)cc1F [Sitagliptin] |  |  |  |  |  |  |  |  |  |  |  |  |  |  |  |  |  |  |  |  | Bioavailability [13]: 87%; Half Life [13]: 8 to 14 h
Oc1ccc(C=Cc2cc(O)cc(O)c2)cc1 [resveratrol] |  |  |  |  |  |  |  |  |  |  |  |  |  |  |  |  |  |  |  |  | AMPK phosphorylation [12]: increased
